What all share (type): cell-based, human
Assay [1] has as its system HTT. Kind of assay: HiBiT protein abundance assay, HTT HiBiT K562 cell line. Conditions: HiBiT K562 cell line, 24 hours, top dose 10 μM; read-out: Effect on protein abundance, HTT (IC50 category). A digest of the protocol: (§1)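 Tagged-protein abundance measured by split-NanoBiT luminescence after lysis, following 24 h compound exposure (37° C; 10 μM top, 3-fold, 10 points; DMSO ≤0.25%) of HiBiT knock-in K562 cells. Percent response vs DMSO and unmodified-cell controls; 4-parameter logistic interpolation at 50% gave IC50.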
In general terms: HiBiT is a short tag that completes a luciferase, so light tracks the accessible tagged protein.

In assay [2] the test system is MYB. Kind of assay: HiBiT protein abundance assay, MYB HiBiT K562 cell line. Particulars: HiBiT K562 cell line, 24 hours, top dose 10 μM; read-out: Effect on protein abundance, MYB (IC50 category). A digest of the protocol:
as §1

Assay [3] has as its system HTT mRNA. Briefly: RT-qPCR splicing assay, HTT canonical junction (CJ) and alternative junction (AJ) mRNA. Conditions: Homo sapiens; for AC50: increase in HTT alternative junction (AJ) mRNA, read-out: HTT AJ AC50. A digest of the protocol: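 Splicing switches were read by TaqMan RT-qPCR on lysates, quantifying exon-exon junctions of the canonical and alternative-exon isoforms. Lysates came from K562 (GAPDH/GUSB reference) or A673 (PPIA reference) cells exposed 24 h to compound in 11 threefold steps from 10 uM, with DMSO ≤0.25%.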
(In general: Quantitative PCR measures a nucleic acid by following its amplification.)

[4] abbreviates: decrease in HTT canonical junction (CJ) mRNA, RT-qPCR, read-out: HTT CJ IC50.
Where [5] appears, read: Table 5 panel, canonical junction qPCR, compound concentration having 50% response in CJ decrease, read-out: HTT IC50 (decrease in CJ mRNA levels).

Counter-ions that a name gives are not always drawn. Like-named read-outs stand apart in the source and are kept apart here. Some results are limits rather than exact numbers.

What is called IC50 is the concentration needed to halve the response being measured. The term AC50 denotes the concentration giving half of the maximal activity seen.

In the case of `Cn1cc2c(=O)n(-c3ccc4c(=O)n(C5CCNCC5)ccc4c3)ccc2n1` [Compound 530, 6-{2-methyl-4-oxopyrazolo[4,3-c]pyridin-5-yl}-2-(piperidin-4-yl)isoquinolin-1-one], the half-inhibitory concentration (IC50) in assay [1], in assay [2], in assay [3] (setting [4]) and in assay [3] (setting [5]) was over 10000 nM throughout. Further, the concentration at half-maximal activity (AC50) in assay [3] (RT-qPCR) was over 10000 nM.
Take `Cc1cn2nc(-c3ccc4c(=O)n(C5CCNCC5)ccc4c3)cc(CC(=O)O)c2n1` [Compound 531, 2-[2-methyl-6-[1-oxo-2-(4-piperidyl)-6-isoquinolyl]imidazo[1,2-b]pyridazin-8-yl]acetic acid]: the 50% inhibitory concentration (IC50) was under 100 nM in assay [1], under 100 nM in assay [2], 100 to 1000 nM in assay [3] (setting [4]) and under 100 nM in assay [3] (setting [5]). The AC50 in assay [3] (RT-qPCR) was under 100 nM.
`Cc1cn2nc(-c3ccc4c(=O)n(C5CCNCC5)ccc4c3)cc(CCO)c2n1` [Compound 533, 6-[8-(2-hydroxyethyl)-2-methyl-imidazo[1,2-b]pyridazin-6-yl]-2-(4-piperidyl)isoquinolin-1-one]: the IC50 is 100 to 1000 nM in assay [1], under 100 nM in assay [2], 100 to 1000 nM in assay [3] (setting [4]) and 100 to 1000 nM in assay [3] (setting [5]). The AC50 in assay [3] (RT-qPCR) fell in the range of 100 to 1000 nM.
With `CNC(=O)Cc1cc(-c2ccc3c(=O)n(C4CCNCC4)ccc3c2)nn2cc(C)nc12` [Compound 534, N-methyl-2-[2-methyl-6-[1-oxo-2-(4-piperidyl)-6-isoquinolyl]imidazo[1,2-b]pyridazin-8-yl]acetamide], the 50% inhibitory concentration (IC50) fell in the range of 1000 to 10000 nM in assay [1], 100 to 1000 nM in assay [2], 1000 to 10000 nM in assay [3] (setting [4]) and 1000 to 10000 nM in assay [3] (setting [5]). For the same compound, in assay [3] (RT-qPCR), the AC50 fell in the range of 1000 to 10000 nM.
As to `Cc1cn2nc(-c3ccc4c(=O)n(C5CCNCC5)ccc4c3)cc(Cc3nnc[nH]3)c2n1` [Compound 535, 6-[2-methyl-8-(4H-1,2,4-triazol-3-ylmethyl)imidazo[1,2-b]pyridazin-6-yl]-2-(4-piperidyl) isoquinolin-1-one], the IC50 in assay [1], in assay [2], in assay [3] (setting [4]) and in assay [3] (setting [5]) was 1000 to 10000 nM throughout. In assay [3] (RT-qPCR), the AC50 was in the range of 1000 to 10000 nM.
For `Cc1cn2nc(-c3ccc4c(=O)n(C5CCNCC5)ccc4c3)cc(Cc3nnn[nH]3)c2n1` [Compound 536, 6-[2-methyl-8-(1H-tetrazol-5-ylmethyl)imidazo[1,2-b]pyridazin-6-yl]-2-(4-piperidyl) isoquinolin-1-one], the IC50 in assay [1], in assay [2], in assay [3] (setting [4]) and in assay [3] (setting [5]) was over 10000 nM throughout. Besides, the AC50 in assay [3] (RT-qPCR) was over 10000 nM.
For the compound `CCN1CCC(n2ncc3cc(-c4cc(C)c5nc(C)cn5n4)cc(F)c3c2=O)CC1` [Compound 537], the IC50 was under 100 nM in assay [1], 100 to 1000 nM in assay [2], under 100 nM in assay [3] (setting [4]) and under 100 nM in assay [3] (setting [5]). The AC50 in assay [3] (RT-qPCR) is under 100 nM.
For the compound `Cc1cn2nc(-c3cc(F)c4c(=O)n(C5CCN(CCF)CC5)ncc4c3)cc(C)c2n1` [Compound 538], the concentration for half-maximal inhibition (IC50) in assay [1] was under 100 nM; in assay [2] it was 100 to 1000 nM; in assay [3] (setting [4]), under 100 nM; in assay [3] (setting [5]), under 100 nM. The concentration at half-maximal activity (AC50) in assay [3] (RT-qPCR) is under 100 nM.
As to `Cc1cn2nc(-c3cc(F)c4c(=O)n(C5CCN(C)CC5)ncc4c3)cc(C)c2n1` [Compound 539], the half-inhibitory concentration (IC50) in assay [1], in assay [2], in assay [3] (setting [4]) and in assay [3] (setting [5]) was under 100 nM in each case. In assay [3] (RT-qPCR), the concentration at half-maximal activity (AC50) was under 100 nM.
Regarding `Cc1cn2nc(-c3cc(F)c4c(=O)n(C5CCNCC5)ncc4c3)cc(C)c2n1` [Compound 540], the IC50 in assay [1], in assay [2], in assay [3] (setting [4]) and in assay [3] (setting [5]) was under 100 nM in each case. The AC50 in assay [3] (RT-qPCR) was under 100 nM.
Take `Cc1cn2nc(-c3cc(O)c4c(=O)n(C5CCNCC5)ncc4c3)cc(C)c2n1` [Compound 541]: the 50% inhibitory concentration (IC50) in assay [1], in assay [2], in assay [3] (setting [4]) and in assay [3] (setting [5]) was under 100 nM in each case. The AC50 in assay [3] (RT-qPCR) is under 100 nM.
With `CCN1CCC(n2ncc3cc(-c4cc(C)c5nc(C)cn5n4)cc(O)c3c2=O)CC1` [Compound 542], the 50% inhibitory concentration (IC50) in assay [1], in assay [2], in assay [3] (setting [4]) and in assay [3] (setting [5]) was under 100 nM in each case. Moreover, in assay [3] (RT-qPCR), the AC50 is under 100 nM.
Consider `Cc1cn2nc(-c3cc(O)c4c(=O)n(C5CCN(C)CC5)ncc4c3)cc(C)c2n1` [Compound 543], for which the IC50 is under 100 nM in assay [1], 100 to 1000 nM in assay [2], 100 to 1000 nM in assay [3] (setting [4]) and under 100 nM in assay [3] (setting [5]). In addition, the AC50 in assay [3] (RT-qPCR) is under 100 nM.
`Cc1cn2nc(-c3ccc4c(=O)n(C5CCNCC5)ccc4c3)cc(Oc3ccccc3F)c2n1` [Compound 544, 6-[8-(2-fluorophenoxy)-2-methyl-imidazo[1,2-b]pyridazin-6-yl]-2-(4-piperidyl) isoquinolin-1-one; hydrochloride]: the concentration for half-maximal inhibition (IC50) in assay [1], in assay [2], in assay [3] (setting [4]) and in assay [3] (setting [5]) was under 100 nM in each case. Moreover, the concentration at half-maximal activity (AC50) in assay [3] (RT-qPCR) is under 100 nM.
For `Cc1cn2nc(-c3ccc4c(=O)n(C5CCNCC5)ccc4c3)cc(Oc3cccc(F)c3)c2n1` [Compound 545, 6-[8-(3-fluorophenoxy)-2-methyl-imidazo[1,2-b]pyridazin-6-yl]-2-(4-piperidyl)isoquinolin-1-one; hydrochloride], the half-maximal inhibitory concentration (IC50) in assay [1], in assay [2], in assay [3] (setting [4]) and in assay [3] (setting [5]) was under 100 nM in each case. Also, in assay [3] (RT-qPCR), the half-maximal activity concentration (AC50) is under 100 nM.
For the compound `Cc1cn2nc(-c3ccc4c(=O)n(C5CCNCC5)ccc4c3)cc(Oc3ccc(F)cc3)c2n1` [Compound 546, 6-[8-(4-fluorophenoxy)-2-methyl-imidazo[1,2-b]pyridazin-6-yl]-2-(4-piperidyl) isoquinolin-1-one; hydrochloride], the IC50 in assay [1], in assay [2], in assay [3] (setting [4]) and in assay [3] (setting [5]) was under 100 nM in each case. Moreover, the half-maximal activity concentration (AC50) in assay [3] (RT-qPCR) was under 100 nM.
On to `COc1cccc(Oc2cc(-c3ccc4c(=O)n(C5CCNCC5)ccc4c3)nn3cc(C)nc23)c1` [Compound 547, 6-[8-(3-methoxyphenoxy)-2-methyl-imidazo[1,2-b]pyridazin-6-yl]-2-(4 piperidyl) isoquinolin-1-one], for which the 50% inhibitory concentration (IC50) in assay [1], in assay [2], in assay [3] (setting [4]) and in assay [3] (setting [5]) was under 100 nM throughout. For the same compound, in assay [3] (RT-qPCR), the concentration at half-maximal activity (AC50) is under 100 nM.
On to `Cc1cn2nc(-c3cc(F)c4c(=O)n(C5CCNCC5)ncc4c3)cc(Oc3ccccc3)c2n1` [Compound 548, 8-fluoro-6-(2-methyl-8-phenoxy-imidazo[1,2-b]pyridazin-6-yl)-2-(4-piperidyl)phthala-zin-1-one], for which the IC50 in assay [1], in assay [2], in assay [3] (setting [4]) and in assay [3] (setting [5]) was under 100 nM in each case. In assay [3] (RT-qPCR), the AC50 was under 100 nM.
Regarding `Cc1cn2nc(-c3ccc4c(=O)n(C5CCNCC5)ncc4c3)cc(Oc3ccccc3)c2n1` [Compound 549, 6-(2-methyl-8-phenoxy-imidazo[1,2-b]pyridazin-6-yl)-2-(4-piperidyl) phthalazin-1-one], the IC50 in assay [1], in assay [2], in assay [3] (setting [4]) and in assay [3] (setting [5]) was under 100 nM throughout. Moreover, in assay [3] (RT-qPCR), the half-maximal activity concentration (AC50) is under 100 nM.
`Cc1cn2nc(-c3ccc4c(=O)n(C5CCNCC5)ccc4c3)cc(Oc3cccnc3)c2n1` [Compound 550, 6-[2-methyl-8-(3-pyridyloxy)imidazo[1,2-b]pyridazin-6-yl]-2-(4-piperidyl)isoquinolin-1-one]: the IC50 in assay [1], in assay [2], in assay [3] (setting [4]) and in assay [3] (setting [5]) was under 100 nM each time. In addition, the AC50 in assay [3] (RT-qPCR) was under 100 nM.
For `Cc1cn2nc(-c3ccc4c(=O)n(C5CCNCC5)ccc4c3)cc(-n3ccc(=O)cc3)c2n1` [Compound 551, 6-[2-methyl-8-(4-oxo-1-pyridyl)imidazo[1,2-b]pyridazin-6-yl]-2-(4-piperidyl)isoquinolin-1-one], the half-maximal inhibitory concentration (IC50) in assay [1], in assay [2], in assay [3] (setting [4]) and in assay [3] (setting [5]) was 100 to 1000 nM throughout. The AC50 in assay [3] (RT-qPCR) was in the range of 100 to 1000 nM.
On to `Cc1cn2nc(-c3ccc4c(=O)n(C5CCNCC5)ccc4c3)cc(-n3ccccc3=O)c2n1` [Compound 552, 6-[2-methyl-8-(2-oxo-1-pyridyl)imidazo[1,2-b]pyridazin-6-yl]-2-(4-piperidyl)isoquinolin-1-one], for which the IC50 is over 10000 nM in assay [1], 1000 to 10000 nM in assay [2], over 10000 nM in assay [3] (setting [4]) and over 10000 nM in assay [3] (setting [5]). For the same compound, the AC50 in assay [3] (RT-qPCR) was over 10000 nM.
`Cc1cn2nc(-c3cc(O)c4c(=O)n(C5CCN(CCF)CC5)ncc4c3)cc(C)c2n1` [Compound 553]: the IC50 was under 100 nM in assay [1], 100 to 1000 nM in assay [2], under 100 nM in assay [3] (setting [4]) and under 100 nM in assay [3] (setting [5]). In assay [3] (RT-qPCR), the AC50 was under 100 nM.
